The target in test [1] is T1, human seritonin transporter (Homo sapiens, UniProt P31645).
T1 construct: host or cells: HEK-293
The test can be described thus: hSERT receptor binding ([125I]-RTI-55 radioligand binding). Conditions: membranes of HEK-293 cells transfected with human seritonin transporter, IC50 converted to Ki by Cheng-Prusoff, read-out: SERT (Ki).

In test [2] the target is T2, human norepinephrine transporter (Homo sapiens, UniProt P23975).
T2 construct: host or cells: HEK-293
Briefly: hNET receptor binding ([125I]-RTI-55 radioligand binding). Conditions: membranes of HEK-293 cells transfected with human norepinephrine transporter, IC50 converted to Ki by Cheng-Prusoff. In a few lines: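 Membranes from HEK-293 cells transfected with human NET. Nonspecific binding defined with 10 μM desipramine, duplicates. IC50 by nonlinear regression, converted to Ki with Cheng-Prusoff.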

Like-named read-outs stand apart in the source and are kept apart here.

T2 sequence (P23975 whole entry): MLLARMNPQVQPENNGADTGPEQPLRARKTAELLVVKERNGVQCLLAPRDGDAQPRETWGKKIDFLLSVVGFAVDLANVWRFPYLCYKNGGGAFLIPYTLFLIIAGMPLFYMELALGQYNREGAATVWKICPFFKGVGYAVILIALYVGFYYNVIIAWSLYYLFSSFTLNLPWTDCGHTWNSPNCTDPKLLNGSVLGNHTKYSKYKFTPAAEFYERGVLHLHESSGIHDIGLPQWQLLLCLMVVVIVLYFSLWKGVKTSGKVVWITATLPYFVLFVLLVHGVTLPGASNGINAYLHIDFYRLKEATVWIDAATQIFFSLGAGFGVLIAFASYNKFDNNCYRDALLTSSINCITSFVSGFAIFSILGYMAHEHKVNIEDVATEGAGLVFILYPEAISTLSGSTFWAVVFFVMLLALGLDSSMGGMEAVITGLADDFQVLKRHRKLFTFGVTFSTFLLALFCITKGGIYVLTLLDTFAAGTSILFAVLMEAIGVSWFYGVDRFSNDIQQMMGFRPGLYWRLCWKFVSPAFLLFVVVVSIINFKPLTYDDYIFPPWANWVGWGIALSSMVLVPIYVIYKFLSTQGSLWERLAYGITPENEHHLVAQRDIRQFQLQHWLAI
T1 sequence (P31645 whole entry): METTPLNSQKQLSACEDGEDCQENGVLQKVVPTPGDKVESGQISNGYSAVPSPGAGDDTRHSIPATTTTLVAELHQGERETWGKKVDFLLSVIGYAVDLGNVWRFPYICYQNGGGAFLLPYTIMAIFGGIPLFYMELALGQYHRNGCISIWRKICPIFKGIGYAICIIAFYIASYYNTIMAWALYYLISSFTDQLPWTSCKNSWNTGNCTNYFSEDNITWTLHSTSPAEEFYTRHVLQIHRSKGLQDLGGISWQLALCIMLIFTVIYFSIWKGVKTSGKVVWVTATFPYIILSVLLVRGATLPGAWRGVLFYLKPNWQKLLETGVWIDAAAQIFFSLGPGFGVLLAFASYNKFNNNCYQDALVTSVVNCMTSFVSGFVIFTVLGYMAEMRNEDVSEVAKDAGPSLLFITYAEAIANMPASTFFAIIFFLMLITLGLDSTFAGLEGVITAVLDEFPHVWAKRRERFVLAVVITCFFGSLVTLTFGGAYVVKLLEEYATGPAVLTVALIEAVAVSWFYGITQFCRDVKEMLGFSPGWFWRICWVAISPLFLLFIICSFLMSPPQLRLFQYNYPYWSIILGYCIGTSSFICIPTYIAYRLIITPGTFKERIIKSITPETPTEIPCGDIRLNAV

The Ki is the dissociation constant of the complex between target and ligand, obtained from inhibition or displacement. As to `COc1cccc([C@H](Oc2ccccc2OC(F)(F)F)[C@@H]2CNCCO2)n1` [Example 109, (2S)-2-{(S)-(6-methoxypyridin-2-yl)[2-(trifluoromethoxy)phenoxy]methyl}morpholine], the Ki was 364 nM in test [1] and 16 nM in test [2] (read-out: hNET (Ki)).
In the case of `Cc1ccc(C(C)C)c(O[C@@H](c2ccccn2)[C@@H]2CNCCO2)c1` [Example 130, (2S)-2-[(S)-(2-isopropyl-5-methylphenoxy)(pyridin-2-yl)methyl]morpholine], the results for the Ki in test [1] and in test [2] (read-out: hNET (Ki)) were 7060 nM and 457 nM, respectively.
On the same counts, the results for `CCOc1cccc(F)c1O[C@@H](c1ccccn1)[C@@H]1CNCCO1` [Example 159, (2S)-2-[(S)-(2-ethoxy-6-fluorophenoxy)(pyridin-2-yl)methyl]morpholine] are 7370 nM and 7 nM.
On the same counts, the results for `CC(C)c1ccccc1O[C@@H](c1ccccn1)[C@@H]1CNCCO1` [Example 103, (2S)-2-[(S)-(2-isopropylphenoxy)(pyridin-2-yl)methyl]morpholine] are 6070 nM and 13 nM.
Turning to `Fc1cccc(F)c1O[C@H](C1=CCCC1)[C@@H]1CNCCO1` [Example 147, (2S)-2-[(R)-cyclopent-1-en-1-yl(2,6-difluorophenoxy)methyl]morpholine], the results for the inhibition constant (Ki) in test [1] and in test [2] (read-out: hNET (Ki)) were 2530 nM and 2570 nM, respectively.
Consider `c1ccc([C@H](Oc2ccccc2N2CCNCC2)[C@@H]2CNCCO2)cc1` [Example 52, (S)-2-[(S)-Phenyl-(2-piperazin-1-yl-phenoxy)-methyl]-morpholine], for which the inhibitory constant (Ki) was 1350 nM in test [1] and 1620 nM in test [2] (hNET (Ki)).
In the case of `c1ccc([C@H](Oc2cccnc2C2CC2)[C@@H]2CNCCO2)cc1` [Example 150, (2S)-2-[(S)-[(2-cyclopropylpyridin-3-yl)oxy](phenyl)methyl]morpholine], the inhibition constant Ki was 2030 nM in test [1] and 20 nM in test [2] (read-out: hNET (Ki)).
On the same counts, the results for `COc1cccc(F)c1OC(c1cccnc1)[C@H]1CNCCO1` (mixture of isomers) [Example 202, (2R)-2-[(2-fluoro-6-methoxyphenoxy)(pyridin-3-yl)methyl]morpholine] are 722 nM and 45 nM.
On the same counts, the results for `CC(C)Oc1cccc(F)c1O[C@@H](c1ccccc1)[C@@H]1CNCCO1` [Example 165, (2S)-2-[(S)-(2-fluoro-6-isopropoxyphenoxy)(phenyl)methyl]morpholine] are 351 nM and 4 nM.
On the same counts, the results for `Fc1ccccc1O[C@@H](c1ccccc1)[C@@H]1CNCCO1` [Example 84, (S)-2-[(S)-(2-Fluoro-phenoxy)-phenyl-methyl]-morpholine] are 4860 nM and 7.3 nM.
As to `Brc1ccccc1O[C@@H](c1ccccc1)[C@@H]1CNCCO1` [Example 4, (S)-2-[(S)-(2-Bromo-phenoxy)-phenyl-methyl]-morpholine], the Ki came out at 708 nM in test [1] and 1.6 nM in test [2] (read-out: hNET (Ki)).
On the same counts, the results for `COc1ccccc1-c1ccccc1OCC1CNCCO1` (stereo not shown) [Example 74, 2-(2′-Methoxy-biphenyl-2-yloxymethyl)-morpholine] are not below 10000 nM and 55 nM.
Turning to `CCOc1ccccc1O[C@H](c1ccccn1)[C@@H]1CNCCO1` [Example 20, (S)-2-[(R)-(2-Ethoxy-phenoxy)-pyridin-2-yl-methyl]-morpholine], the inhibition constant (Ki) in test [1] was not below 10000 nM; in test [2] (read-out: hNET (Ki)) it was 593 nM.
Regarding `CCOc1ccccc1OC(c1ncco1)[C@@H]1CNCCO1` (mixture of isomers) [Example 195, (S)-2-[(2-ethoxyphenoxy)(1,3-oxazol-2-yl)methyl]morpholine], the inhibition constant Ki amounted to 7060 nM in test [1] and 10 nM in test [2] (read-out: hNET (Ki)).
On the same counts, the results for `Fc1cccc(F)c1OC(C1=CCCC1)[C@@H]1CNCCO1` (mixture of isomers) [Example 146, (2S)-2-[(S)-cyclopent-1-en-1-yl(2,6-difluorophenoxy)methyl]morpholine] are 3700 nM and 20 nM.
For the compound `CCOc1ccccc1O[C@@H](c1ncccc1C)[C@@H]1CNCCO1` [Example 138, (2S)-2-[(S)-(2-ethoxyphenoxy)(3-methylpyridin-2-yl)methyl]morpholine], the Ki in test [1] was found to be 3820 nM; in test [2] (read-out: hNET (Ki)) it was 1610 nM.
For `CCCC[C@H](Oc1cccnc1OCC)[C@@H]1CNCCO1` [Example 176, (2S)-2-{(1S)-1-[(2-ethoxypyridin-3-yl)oxy]pentyl}morpholine], the Ki in test [1] is 3420 nM; in test [2] (read-out: hNET (Ki)) it was 5 nM.
On the same counts, the results for `CC(C)c1ccccc1O[C@@H](c1ccccc1)[C@@H]1CNCCO1` [Example 44, (S)-2-[(S)-(2-Isopropyl-phenoxy)-phenyl-methyl]-morpholine] are 1360 nM and 5.3 nM.
On the same counts, the results for `Fc1ccc(O[C@H](c2ccccn2)[C@H]2CNCCO2)c(F)c1` [Example 27] are 412 nM and 7900 nM.
For `Clc1ccccc1-c1ccccc1O[C@@H](c1ccccc1)[C@@H]1CNCCO1` [Example 30, (S)-2-[(S)-(2′-Chloro-biphenyl-2-yloxy)-phenyl-methyl]-morpholine], the Ki in test [1] was not below 10000 nM; in test [2] (read-out: hNET (Ki)), 41 nM.
On the same counts, the results for `CCOc1ncccc1O[C@@H](Cc1ccccc1)[C@@H]1CNCCO1` [Example 197, (2S)-2-{(1S)-1-[(2-ethoxypyridin-3-yl)oxy]-2-phenylethyl}morpholine] are 811 nM and 18 nM.
On the same counts, the results for `C=CCc1ccccc1O[C@@H](c1ccccc1)[C@@H]1CNCCO1` [Example 39, (S)-2-[(S)-(2-Allyl-phenoxy)-phenyl-methyl]-morpholine] are 475 nM and 3.7 nM.
On the same counts, the results for `Cc1cccc(F)c1O[C@@H](c1ccccc1)[C@@H]1CNCCO1` [Example 178, (2S)-2-[(S)-(2-fluoro-6-methylphenoxy)(phenyl)methyl]morpholine] are 61 nM and 3 nM.
As to `CCOc1ncccc1O[C@@H](CC1CCCCC1)[C@@H]1CNCCO1` [Example 162, (2S)-2-{(1S)-2-cyclohexyl-1-[(2-ethoxypyridin-3-yl)oxy]ethyl}morpholine], the results for the inhibition constant Ki in test [1] and in test [2] (read-out: hNET (Ki)) were 263 nM and 5 nM, respectively.
In the case of `CCCc1ccccc1O[C@@H](c1ccccc1)[C@@H]1CNCCO1` [Example 97, (2S)-2-[(S)-phenyl(2-propylphenoxy)methyl]morpholine], the Ki in test [1] was 471 nM; in test [2] (read-out: hNET (Ki)), 9 nM.
On the same counts, the results for `CC(C)c1ncccc1O[C@@H](c1ccccc1)[C@@H]1CNCCO1` [Example 179, (2S)-2-[(S)-[(2-isopropylpyridin-3-yl)oxy](phenyl)methyl]morpholine] are 2550 nM and 18 nM.
On the same counts, the results for `c1ccc([C@H](Oc2ccccc2-c2cccnc2)[C@@H]2CNCCO2)cc1` [Example 13, (S)-2-[(S)-Phenyl-(2-pyridin-3-yl-phenoxy)-methyl]-morpholine] are 4100 nM and 18 nM.
On the same counts, the results for `FCCCc1ccccc1O[C@@H](c1ccccc1)[C@@H]1CNCCO1` [Example 145, (2S)-2-[(S)-[2-(3-fluoropropyl)phenoxy](phenyl)methyl]morpholine] are 4140 nM and 45 nM.
Consider `CCCc1ncccc1O[C@@H](c1ccccc1)[C@@H]1CNCCO1` [Example 135, (2S)-2-{(S)-phenyl[(2-propylpyridin-3-yl)oxy]methyl}morpholine], for which the inhibition constant (Ki) in test [1] amounted to 4480 nM; in test [2] (read-out: hNET (Ki)), 32 nM.

For the origin of these results see patent publication US7659394B2 (Pfizer Inc, priority 2004, dated 2010).
